The source of these data is US11111240B2, “Sultam compound and application method thereof” (Chia Tai Tianqing Pharmaceutical Group Co., Ltd., priority 2016, dated 2021).

Molecules are shown by their SMILES. A value given as a limit tells only on which side of the number the result lay.

Sequence of IDH1 (R132H) (O75874 whole entry R132H): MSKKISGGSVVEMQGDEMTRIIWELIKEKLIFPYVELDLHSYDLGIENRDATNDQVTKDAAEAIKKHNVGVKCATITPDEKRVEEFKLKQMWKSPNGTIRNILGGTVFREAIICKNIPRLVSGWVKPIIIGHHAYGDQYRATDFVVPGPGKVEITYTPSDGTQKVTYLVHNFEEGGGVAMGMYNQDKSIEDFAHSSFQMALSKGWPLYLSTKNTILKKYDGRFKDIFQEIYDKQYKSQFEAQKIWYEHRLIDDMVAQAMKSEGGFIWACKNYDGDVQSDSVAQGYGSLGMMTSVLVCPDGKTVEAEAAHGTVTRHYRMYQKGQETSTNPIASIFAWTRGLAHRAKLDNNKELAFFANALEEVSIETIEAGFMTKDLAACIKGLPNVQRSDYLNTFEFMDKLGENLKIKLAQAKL

This assay deals with IDH1 (R132H) (Homo sapiens (Human), UniProt O75874, R132H). The experiment in a line: Enzyme assay, IDH1m inhibition (NADPH decrease, diaphorase/resazurin). The assay is classed as biochemical. The conditions noted are these: 40 nM enzyme, 16 h pre-incubation at 23° C. The source says:
Resazurin is a traditional redox dye, and after a redox reaction, it can be reduced from a blue resazurin without fluorescence to a pink fluorescent substance, resorufin, which can be measured and quantified with relative fluorescence unit (RFU) of fluorophotometer (Ex=530-570 nm, Em=590-620 nm). At present, resazurin is widely used for determining the viability of bacteria, cells, etc. and the enzyme activity detection of oxidoreductase. We detected the decrease of cofactor NADPH to determine the inhibitory activity of a compound against IDH1m and detected the generation of cofactor NADPH to determine the inhibitory activity of a compound against IDH WT. The compound was pre-incubated with IDH1m and NADPH, and then the reaction was initiated by adding α-KG and performed for certain time under a linear condition. Then, diaphorase (lipoamide dehydrogenase) and the corresponding substrate resazurin were added thereto for detection. Lipoamide dehydrogenase terminated the IDH1m reaction by decreasing the available cofactor NADPH, which oxidized NADPH to NADP, and reduced resazurin to high fluorescent resorufin. The amount of the remaining cofactor NADPH after a specific reaction time was quantified via an easily detectable fluorophore.
The specific operation was as follows: 2.5 μl of the compound diluted in a 3-fold gradient was added to a 384-well plate, followed by adding 5 μl of the reaction buffer (20 mM Tris-HCl, pH 7.5; 150 mM NaCl; 10 mM MgCl2; 0.4 mg/mL BSA (Bovine Serum Albumin) and 2 mM DTT (dithiothreitol)) containing 40 nM IDH1 (R132H/R132C) and 20 μM NADPH. Then, the above test mixture was incubated at 23° C. for 16 hours, and then 2.5 μl of the reaction buffer containing 4 mM α-KG was added to initiate the reaction. After they were incubated for 60 minutes at room temperature, 5 μl of the termination mixture (0.4 U/ml diaphorase and 20 μM resazurin) formulated with the reaction buffer was added to convert resazurin to resorufin, so as to measure the amount of the remaining NADPH. After incubating at 23° C. for 10 minutes, fluorescence values were determined through Flexstation 3 at Ex535/Em595. The enzyme activity of each compound was respectively determined at 12 concentrations, and the data were calculated using the software GraFit6.0 (Erithacus Software) to obtain the IC50 value of each compound.
A general note: Alamar Blue is a resazurin reagent that responds to reducing activity.
As a reminder, the IC50 is the point on the concentration scale where inhibition reaches its midpoint. Consider `N#Cc1ccnc(N2[C@H](C(=O)N(c3cncc(F)c3)[C@@H](C(=O)NC3CC(F)(F)C3)c3ccccc3Cl)CCS2(=O)=O)c1` [Example 1, (S)—N—((R)-1-(2-chlorophenyl)-2-((3,3-difluorocyclobutyl)amino)-2-oxoethyl)-2-(4-cyanopyridin-2-yl)-N-(5-fluoropyridin-3-yl)-isothiazolidine-3-carboxamide 1,1-dioxide], for which the IC50 is less than 10000 nM.
Turning to `N#Cc1ccnc(N2[C@H](C(=O)N(c3cc(F)cc(F)c3)[C@@H](C(=O)NC3CC(F)(F)C3)c3ccccc3Cl)CCS2(=O)=O)c1` [Example 3, (S)—N—((R)-1-(2-chlorophenyl)-2-((3,3-difluorocyclobutyl)amino)-2-oxoethyl)-2-(4-cyanopyridin-2-yl)-N-(3,5-difluorophenyl)-isothiazolidine-3-carboxamide 1,1-dioxide], the IC50 was less than 500 nM.
In the case of `N#Cc1ccnc(N2[C@H](C(=O)N(c3cc(F)cc(F)c3)[C@H](C(=O)NC3CC(F)(F)C3)c3ccccc3Cl)CCS2(=O)=O)c1` [Example 4, (S)—N—((S)-1-(2-chlorophenyl)-2-((3,3-difluorocyclobutyl)amino)-2-oxoethyl)-2-(4-cyanopyridin-2-yl)-N-(3,5-difluorophenyl)-isothiazolidine-3-carboxamide 1,1-dioxide] it was less than 20 nM; in that of `N#Cc1ccnc(N2[C@H](C(=O)N(c3cccc(C(F)(F)F)c3)[C@@H](C(=O)NC3CC(F)(F)C3)c3ccccc3Cl)CCS2(=O)=O)c1` [Example 5, (S)—N—((R)-1-(2-chlorophenyl)-2-((3,3-difluorocyclobutyl)amino)-2-oxoethyl)-2-(4-cyanopyridin-2-yl)-N-(3-trifluoromethylphenyl)-isothiazolidine-3-carboxamide 1,1-dioxide], less than 1000 nM; in that of `N#Cc1ccnc(N2[C@H](C(=O)N(c3cccc(C(F)(F)F)c3)[C@H](C(=O)NC3CC(F)(F)C3)c3ccccc3Cl)CCS2(=O)=O)c1` [Example 6, (S)—N—((S)-1-(2-chlorophenyl)-2-((3,3-difluorocyclobutyl)amino)-2-oxoethyl)-2-(4-cyanopyridin-2-yl)-N-(3-trifluoromethylphenyl)-isothiazolidine-3-carboxamide 1,1-dioxide], less than 20 nM.
The value for `N#Cc1cc(F)cc(N(C(=O)[C@@H]2CCS(=O)(=O)N2c2cc(C#N)ccn2)[C@@H](C(=O)NC2CC(F)(F)C2)c2ccccc2Cl)c1` [Example 7, (S)—N—((R)-1-(2-chlorophenyl)-2-((3,3-difluorocyclobutyl)amino)-2-oxoethyl)-2-(4-cyanopyridin-2-yl)-N-(3-cyano-5-fluorophenyl)-isothiazolidine-3-carboxamide 1,1-dioxide] was less than 500 nM; that for `N#Cc1cc(F)cc(N(C(=O)[C@@H]2CCS(=O)(=O)N2c2cc(C#N)ccn2)[C@H](C(=O)NC2CC(F)(F)C2)c2ccccc2Cl)c1` [Example 8, (S)—N—((S)-1-(2-chlorophenyl)-2-((3,3-difluorocyclobutyl)amino)-2-oxoethyl)-2-(4-cyanopyridin-2-yl)-N-(3-cyano-5-fluorophenyl)-isothiazolidine-3-carboxamide 1,1-dioxide] was less than 20 nM; that for `N#Cc1ccnc(N2[C@H](C(=O)N(c3ccc(F)c(F)c3)[C@@H](C(=O)NC3CC(F)(F)C3)c3ccccc3Cl)CCS2(=O)=O)c1` [Example 9, (S)—N—((R)-1-(2-chlorophenyl)-2-((3,3-difluorocyclobutyl)amino)-2-oxoethyl)-2-(4-cyanopyridin-2-yl)-N-(3,4-difluorophenyl)-isothiazolidine-3-carboxamide 1,1-dioxide] was less than 1000 nM.
The value for `N#Cc1ccnc(N2[C@H](C(=O)N(c3ccc(F)c(F)c3)[C@H](C(=O)NC3CC(F)(F)C3)c3ccccc3Cl)CCS2(=O)=O)c1` [Example 10, (S)—N—((S)-1-(2-chlorophenyl)-2-((3,3-difluorocyclobutyl)amino)-2-oxoethyl)-2-(4-cyanopyridin-2-yl)-N-(3,4-difluorophenyl)-isothiazolidine-3-carboxamide 1,1-dioxide] was less than 20 nM; that for `N#Cc1ccnc(N2[C@H](C(=O)N(c3cccc(F)c3)[C@@H](C(=O)NC3CC(F)(F)C3)c3ccccc3Cl)CCS2(=O)=O)c1` [Example 11, (S)—N—((R)-1-(2-chlorophenyl)-2-((3,3-difluorocyclobutyl)amino)-2-oxoethyl)-2-(4-cyanopyridin-2-yl)-N-(3-fluorophenyl)-isothiazolidine-3-carboxamide 1,1-dioxide] was less than 500 nM; that for `O=C(NC1CCCCC1)[C@@H](c1ccccc1Cl)N(C(=O)[C@@H]1CCS(=O)(=O)N1c1ncccn1)c1cccc(F)c1` [Example 13, (S)—N—((R)-1-(2-chlorophenyl)-2-(cyclohexylamino)-2-oxoethyl)-2-(pyrimidin-2-yl)-N-(3-fluorophenyl)-isothiazolidine-3-carboxamide 1,1-dioxide] was less than 1000 nM.
With `O=C(NC1CCCCC1)[C@H](c1ccccc1Cl)N(C(=O)[C@@H]1CCS(=O)(=O)N1c1ncccn1)c1cccc(F)c1` [Example 14, (S)—N—((S)-1-(2-chlorophenyl)-2-(cyclohexylamino)-2-oxoethyl)-2-(pyrimidin-2-yl)-N-(3-fluorophenyl)-isothiazolidine-3-carboxamide 1,1-dioxide], the 50% inhibitory concentration (IC50) was less than 20 nM.
The value for `N#Cc1ccnc(N2[C@H](C(=O)N(c3cccc(F)c3)[C@@H](C(=O)NC3CCCCC3)c3ccccc3Cl)CCS2(=O)=O)c1` [Example 15, (S)—N—((R)-1-(2-chlorophenyl)-2-(cyclohexylamino)-2-oxoethyl)-2-(4-cyanopyridin-2-yl)-N-(3-fluorophenyl)-isothiazolidine-3-carboxamide 1,1-dioxide] was less than 500 nM.
The value for `N#Cc1ccnc(N2[C@H](C(=O)N(c3cccc(F)c3)[C@H](C(=O)NC3CCCCC3)c3ccccc3Cl)CCS2(=O)=O)c1` [Example 16, (S)—N—((S)-1-(2-chlorophenyl)-2-(cyclohexylamino)-2-oxoethyl)-2-(4-cyanopyridin-2-yl)-N-(3-fluorophenyl)-isothiazolidine-3-carboxamide 1,1-dioxide] was less than 20 nM; that for `O=C(NC1CCCCC1)[C@@H](c1ccccc1Cl)N(C(=O)[C@@H]1CCS(=O)(=O)N1c1cc(F)ccn1)c1cccc(F)c1` [Example 17, (S)—N—((R)-1-(2-chlorophenyl)-2-(cyclohexylamino)-2-oxoethyl)-2-(4-fluoropyridin-2-yl)-N-(3-fluorophenyl)-isothiazolidine-3-carboxamide 1,1-dioxide] was less than 10000 nM; that for `O=C(NC1CCCCC1)[C@H](c1ccccc1Cl)N(C(=O)[C@@H]1CCS(=O)(=O)N1c1cc(F)ccn1)c1cccc(F)c1` [Example 18, (S)—N—((S)-1-(2-chlorophenyl)-2-(cyclohexylamino)-2-oxoethyl)-2-(4-fluoropyridin-2-yl)-N-(3-fluorophenyl)-isothiazolidine-3-carboxamide 1,1-dioxide] was less than 100 nM.
`C#Cc1ccnc(N2[C@H](C(=O)N(c3cccc(F)c3)C(C(=O)NC3CCCCC3)c3ccccc3Cl)CCS2(=O)=O)c1` (stereo partly drawn) [Example 19, (3S)—N-(1-(2-chlorophenyl)-2-(cyclohexylamino)-2-oxoethyl)-N-(3-fluorophenyl)-2-(4-ethynylpyridin-2-yl)isothiazolidine-3-carboxamide 1,1-dioxide] had an IC50 of less than 1000 nM.
In the case of `N#Cc1ccnc(NS(=O)(=O)c2cccc(N(C(=O)[C@@H]3CCS(=O)(=O)N3c3cc(C#N)ccn3)C(C(=O)NC3CCCCC3)c3ccccc3Cl)c2)c1` (stereo partly drawn) [Example 20, (3S)—N-(1-(2-chlorophenyl)-2-(cyclohexylamino)-2-oxoethyl)-2-(4-cyanopyridin-2-yl)-N-(3-(N-(4-cyanopyridin-2-yl)aminosulfonyl)phenyl)-isothiazolidine-3-carboxamide 1,1-dioxide] it was less than 20 nM.
As for `N#Cc1cccc(CN2[C@H](C(=O)N(c3cccc(F)c3)C(C(=O)NC3CCCCC3)c3ccccc3Cl)CCS2(=O)=O)c1` (stereo partly drawn) [Example 21], the IC50 was less than 10000 nM.
In the case of `N#Cc1ccnc(N2[C@H](C(=O)N(c3cccc(F)c3)[C@@H](C(=O)NC3CCC(F)(F)CC3)c3ccccc3Cl)CCS2(=O)=O)c1` [Example 22] it was less than 1000 nM.
For `N#Cc1ccnc(N2[C@H](C(=O)N(c3cccc(F)c3)[C@H](C(=O)NC3CCC(F)(F)CC3)c3ccccc3Cl)CCS2(=O)=O)c1` [Example 23, (S)—N—((S)-1-(2-chlorophenyl)-2-((4,4-difluorocyclohexyl)amino)-2-oxoethyl)-2-(4-cyanopyridin-2-yl)-N-(3-fluorophenyl)-isothiazolidine-3-carboxamide 1,1-dioxide], the IC50 was less than 20 nM.
